In assay [1] the target is SNAP-hSPR (sepiapterin reductase, SPR) (Homo sapiens, UniProt P35270). Nature of the assay: biochemical. Type of assay: binding. As to conditions: terbium labelled SNAP-hSPR / SSZ labelled SNAP-EGFP; read-out: hTR-FRET IC50.
The subject of assay [2] is BH4 production in human peripheral blood mononuclear cells (PBMCs). Nature of the assay: hPBMC assay, inhibition of BH4 production by LC-MS (anti-CD3/anti-CD28 stimulated). Type of assay: cell-based. To be noted: PBMC, read-out: hPBMC IC50.

The values below come from US9963462B2 (priority 2015, dated 2018).

Chain of SNAP-hSPR (sepiapterin reductase, SPR) (P35270 whole entry): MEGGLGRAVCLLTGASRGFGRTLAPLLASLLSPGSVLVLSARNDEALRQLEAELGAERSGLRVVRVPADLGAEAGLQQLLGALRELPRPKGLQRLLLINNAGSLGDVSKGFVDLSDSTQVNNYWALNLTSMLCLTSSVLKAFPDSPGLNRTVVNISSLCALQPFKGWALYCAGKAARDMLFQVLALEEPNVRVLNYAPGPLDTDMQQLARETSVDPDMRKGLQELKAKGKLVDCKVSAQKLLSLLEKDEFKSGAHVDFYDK

One may read the IC50 as the concentration needed to halve the response being measured. For the molecule `Cc1c(C(=O)N2CCC3(CC2)CC3C(=O)N2CCC2)cnn1-c1nc2c(c(=O)[nH]1)CCC2` (centres unmarked) [Q-1089], the IC50 turned out to be 3 nM in assay [1] and 350 nM in assay [2].
The matching figures for `Cc1c(C(=O)N2CCN(S(=O)(=O)c3ccccc3C(F)(F)F)CC2)cnn1-c1nn2cccc2c(=O)[nH]1` [Q-1796]: 1 nM and 260 nM.
On to `O=C(c1cn(-c2nn3cccc3c(=O)[nH]2)nn1)N1CCN(C2CCC2)CC1` [Q-1244], for which the IC50 in assay [1] turned out to be 1 nM; in assay [2] it was 36 nM.
The matching figures for `Cc1c(C(=O)N2CC3CCCC(C2)N3CC(F)(F)F)cnn1-c1nc2c(c(=O)[nH]1)CCC2` [Q-1081]: 2 nM and 130 nM.
With `Cc1c(C(=O)N2CCC(c3nc(-c4cccnc4)cs3)CC2)cnn1-c1nc2c(c(=O)[nH]1)CCC2` [Q-1084], the results for the IC50 in assay [1] and in assay [2] were 2 nM and 13 nM, respectively.
The matching figures for `Cc1c(C(=O)N2CCN(S(=O)(=O)c3cc(Cl)sc3Cl)CC2)cnn1-c1nn2cccc2c(=O)[nH]1` [Q-1858]: 1 nM and 260 nM.
The like results for `Cc1c(C(=O)N2CC3CC(C2)N3C2CCC2)cnn1-c1nn2cccc2c(=O)[nH]1` [Q-1168] were, in that order, 3 nM and 58 nM.
For `Cc1c(C(=O)N2CCC(C(=O)C3CC3)CC2)cnn1-c1nn2cccc2c(=O)[nH]1` [Q-1208], the IC50 in assay [1] was determined as 1 nM; in assay [2], 61 nM.
The like results for `Cc1c(C(=O)N2CCN(S(=O)(=O)C(C)C)CC2)cnn1-c1nn2cccc2c(=O)[nH]1` [Q-1558] were, in that order, 2 nM and 92 nM.
The like results for `Cc1c(C(=O)N2CCC(C(=O)CCC(F)(F)F)CC2)cnn1-c1nn2cccc2c(=O)[nH]1` [Q-1227] were, in that order, 1 nM and 14 nM.
The like results for `Cc1c(C(=O)N2CCN(c3ncc(-c4cccc(Cl)c4)o3)CC2)cnn1-c1nn2cccc2c(=O)[nH]1` [Q-1176] were, in that order, 9 nM and 280 nM.
Take `Cc1cc(C)c(S(=O)(=O)N2CCN(C(=O)c3cnn(-c4nn5cccc5c(=O)[nH]4)c3C)CC2)c(C)c1` [Q-1820]: the IC50 is 1 nM in assay [1] and 94 nM in assay [2].
With `Cc1c(C(=O)N2CCC(c3nccs3)CC2)cnn1-c1nc2c(c(=O)[nH]1)CCC2` [Q-1076], the figures for the IC50 in assay [1] and in assay [2] were 1 nM and 35 nM, respectively.
The like results for `O=C(c1cn(-c2nn3cccc3c(=O)[nH]2)nn1)N1CC2CC(C1)N2CC(F)(F)F` [Q-1226] were, in that order, 7 nM and 410 nM.
The matching figures for `Cc1c(C(=O)N2CCN(c3ncc(-c4cccc(C(F)(F)F)c4)o3)CC2)cnn1-c1nn2cccc2c(=O)[nH]1` [Q-1159]: 20 nM and 600 nM.
As to `Cc1c(C(=O)N2CCN(C3CCCC3(F)F)CC2)cnn1-c1nn2cccc2c(=O)[nH]1` (centres unmarked) [Q-1362], the values for the IC50 in assay [1] and in assay [2] were 1 nM and 43 nM, respectively.
The like results for `Cc1c(C(=O)N2CCN(CC(F)(F)F)CC2)cnn1-c1nc2cc[nH]c2c(=O)[nH]1` [Q-1260] were, in that order, 30 nM and 81 nM.
The matching figures for `Cc1c(C(=O)N2CCN(c3ncc(-c4ccncc4)o3)CC2)cnn1-c1nn2cccc2c(=O)[nH]1` [Q-1161]: 3 nM and 310 nM.
The matching figures for `Cc1c(C(=O)N2CCC(n3ccnc3C(F)(F)F)CC2)cnn1-c1nn2cccc2c(=O)[nH]1` [Q-1229]: 2 nM and 100 nM.
As for `Cc1c(C(=O)N2CCC2c2cccc(F)n2)cnn1-c1nn2cccc2c(=O)[nH]1` (centres unmarked) [Q-1217], the IC50 is 3 nM in assay [1] and 270 nM in assay [2].
In the case of `Cc1c(C(=O)N2CCN(S(=O)(=O)C(F)(F)F)CC2)cnn1-c1nn2cccc2c(=O)[nH]1` [Q-1886], the figures for the half-inhibitory concentration (IC50) in assay [1] and in assay [2] were 2 nM and 110 nM, respectively.
For the molecule `Cc1c(C(=O)N2CCN(CC(F)(F)F)c3ccccc32)cnn1-c1nn2cccc2c(=O)[nH]1` [Q-1216], the IC50 turned out to be 1 nM in assay [1] and 46 nM in assay [2].
Regarding `Cc1c(C(=O)N2CCN(c3nc(-c4cccc(F)c4)cs3)CC2)cnn1-c1nn2cccc2c(=O)[nH]1` [Q-1156], the IC50 was found to be 6 nM in assay [1] and 110 nM in assay [2].
The like results for `Cc1c(C(=O)N2CCN(c3ncc(-c4ccccc4F)o3)CC2)cnn1-c1nn2cccc2c(=O)[nH]1` [Q-1149] were, in that order, 5 nM and 210 nM.
Regarding `Cc1c(C(=O)N2CCN(c3ncc(-c4ccc(F)nc4)s3)CC2)cnn1-c1nn2cccc2c(=O)[nH]1` [Q-1197], the concentration for half-maximal inhibition (IC50) was found to be 3 nM in assay [1] and 26 nM in assay [2].
The matching figures for `Cc1c(C(=O)N2CCc3nc(-c4ccccc4Cl)sc3C2)cnn1-c1nn2cccc2c(=O)[nH]1` [Q-1147]: 7 nM and 520 nM.
The like results for `Cc1c(C(=O)N2CC3CC(C2)N3CC(F)(F)F)cnn1-c1nn2cccc2c(=O)[nH]1` [Q-1106] were, in that order, 1 nM and 93 nM.
Turning to `Cc1c(C(=O)N2CCN(C(=O)C3CC3)CC2)cnn1-c1nn2cccc2c(=O)[nH]1` [Q-1213], the IC50 in assay [1] was 3 nM; in assay [2], 890 nM.
Consider `C=C(C1CCN(C(=O)c2cnn(-c3nn4cccc4c(=O)[nH]3)c2C)CC1)C(F)(F)F` [Q-1095], for which the IC50 in assay [1] was determined as 1 nM; in assay [2], 27 nM.
The like results for `Cc1c(C(=O)N2CC(c3ccnc(C(F)(F)F)c3)C2)cnn1-c1nn2cccc2c(=O)[nH]1` [Q-2009] were, in that order, 2 nM and 370 nM.
The matching figures for `Cc1c(C(=O)N2CCN(S(=O)(=O)c3ccccc3Cl)CC2)cnn1-c1nn2cccc2c(=O)[nH]1` [Q-1819]: 1 nM and 91 nM.
The like results for `Cc1c(C(=O)N2CCN(c3ncc(-c4cccc(C#N)c4)o3)CC2)cnn1-c1nn2cccc2c(=O)[nH]1` [Q-1212] were, in that order, 1 nM and 13 nM.
With `Cc1c(C(=O)N2CCC3(CCC3=O)CC2)cnn1-c1nn2cccc2c(=O)[nH]1` [Q-1209], the results for the IC50 in assay [1] and in assay [2] were 1 nM and 920 nM, respectively.
The matching figures for `Cc1c(C(=O)N2CCC3(CC2)CC3C(=O)N2CCOCC2)cnn1-c1nn2cccc2c(=O)[nH]1` (centres unmarked) [Q-1070]: 2 nM and 200 nM.
The matching figures for `Cc1c(C(=O)N2CCN(c3nc(-c4ccccc4F)cs3)CC2)cnn1-c1nn2cccc2c(=O)[nH]1` [Q-1165]: 6 nM and 190 nM.
For `Cc1c(C(=O)N2CCN(S(=O)(=O)c3ccccc3)CC2)cnn1-c1nn2cccc2c(=O)[nH]1` [Q-1535], the half-maximal inhibitory concentration (IC50) amounted to 1 nM in assay [1] and 110 nM in assay [2].
Turning to `Cc1c(C(=O)N2CCC(O)(C3(C#N)CC3)CC2)cnn1-c1nn2cccc2c(=O)[nH]1` [Q-1092], the IC50 stood at 1 nM in assay [1] and 330 nM in assay [2].
The matching figures for `Cc1c(C(=O)N2CCN(CC(F)(F)F)C3(CCC3)C2)cnn1-c1nn2cccc2c(=O)[nH]1` [Q-1200]: 1 nM and 150 nM.
The matching figures for `Cc1c(C(=O)N2CCN(S(=O)(=O)CCC(F)(F)F)CC2)cnn1-c1nn2cccc2c(=O)[nH]1` [Q-1728]: 1 nM and 86 nM.
The like results for `Cc1c(C(=O)N2CCN(S(=O)(=O)c3ccc(F)cc3F)CC2)cnn1-c1nn2cccc2c(=O)[nH]1` [Q-1866] were, in that order, 2 nM and 80 nM.
For `O=C(c1cn(-c2nn3cccc3c(=O)[nH]2)nn1)N1CC(N2CCC(F)(F)C2)C1` [Q-1224], the IC50 is 9 nM in assay [1] and 370 nM in assay [2].
The like results for `Cc1c(C(=O)N2CCN(c3ncc(-c4ccnc(F)c4)s3)CC2)cnn1-c1nn2cccc2c(=O)[nH]1` [Q-1231] were, in that order, 3 nM and 62 nM.
The matching figures for `Cc1c(C(=O)N2C[C@H]3CCC[C@@H](C2)[C@@H]3CC(F)(F)F)cnn1-c1nn2cccc2c(=O)[nH]1` [Q-1199]: 1 nM and 29 nM.
The matching figures for `Cc1c(C(=O)N2C3CC2CN(CC(F)(F)F)C3)cnn1-c1nn2cccc2c(=O)[nH]1` [Q-1083]: 1 nM and 68 nM.
For the molecule `Cc1c(C(=O)N2CCN(c3nnc(-c4ccc(Cl)cc4)o3)CC2)cnn1-c1nn2cccc2c(=O)[nH]1` [Q-1140], the concentration for half-maximal inhibition (IC50) came out at 8 nM in assay [1] and 230 nM in assay [2].
`Cc1nn(-c2nn3cccc3c(=O)[nH]2)cc1C(=O)N1CC(N2CCC(F)(F)C2)C1` [Q-1243]: the figures for the concentration for half-maximal inhibition (IC50) in assay [1] and in assay [2] were 20 nM and 51 nM, respectively.
The like results for `Cc1c(C(=O)N2CC3(C2)CC(F)(F)C3)cnn1-c1nc2cc[nH]c2c(=O)[nH]1` [Q-1259] were, in that order, 100 nM and 360 nM.
The like results for `Cc1c(C(=O)N2CCN(c3nnc(-c4ccccc4Cl)o3)CC2)cnn1-c1nn2cccc2c(=O)[nH]1` [Q-1188] were, in that order, 6 nM and 290 nM.
On to `Cc1c(C(=O)N2CCN(c3nc(C(F)(F)F)cs3)CC2)cnn1-c1nn2cccc2c(=O)[nH]1` [Q-1134], for which the IC50 was found to be 3 nM in assay [1] and 25 nM in assay [2].
The like results for `Cc1c(C(=O)N2CCN(c3nnc(-c4ccc(C(F)(F)F)cn4)o3)CC2)cnn1-c1nn2cccc2c(=O)[nH]1` [Q-1178] were, in that order, 9 nM and 2600 nM.
For `Cc1c(C(=O)N2CCC(C(C(F)F)C(F)(F)F)CC2)cnn1-c1nn2cccc2c(=O)[nH]1` (centres unmarked) [Q-1131], the IC50 in assay [1] stood at 1 nM; in assay [2] it was 27 nM.
`Cc1c(C(=O)N2CCN(c3ncc(-c4ccc(C(F)(F)F)cc4)o3)CC2)cnn1-c1nn2cccc2c(=O)[nH]1` [Q-1175]: the IC50 was determined as 20 nM in assay [1] and 450 nM in assay [2].
The matching figures for `Cc1c(C(=O)N2CCc3nc(-c4cccc(C(F)(F)F)c4)sc3C2)cnn1-c1nn2cccc2c(=O)[nH]1` [Q-1167]: 10 nM and 81 nM.
The like results for `Cc1c(C(=O)N2CCC(c3ccc(F)cn3)CC2)cnn1-c1nn2cccc2c(=O)[nH]1` [Q-1115] were, in that order, 1 nM and 45 nM.
As for `Cc1c(C(=O)N2CC(c3ccc(F)cn3)C2)cnn1-c1nn2cccc2c(=O)[nH]1` [Q-1128], the IC50 in assay [1] came to 2 nM; in assay [2], 48 nM.
